Source: PubChem BioAssay (NCI)
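Compound exposure: 48 hours, 5 concentrations, 96-well plates. TGI denotes the concentration required for complete inhibition of growth.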

Tests used:
Experiment in all cases: NCI-60 cell line screen, 48 h
A549 NSCLC = test system: A549 NSCLC
HS 578T breast = test system: HS 578T breast
LOX IMVI melanoma = test system: LOX IMVI melanoma
MALME-3M melanoma = test system: MALME-3M melanoma
SK-MEL-2 melanoma = test system: SK-MEL-2 melanoma
SR leukemia = test system: SR leukemia
SW-620 colon = test system: SW-620 colon
T-47D breast = test system: T-47D breast
U251 CNS = test system: U251 CNS
UO-31 renal = test system: UO-31 renal
HT29 colon = test system: HT29 colon
TK-10 renal = test system: TK-10 renal

SMILES | TGI (A549 NSCLC) [µM] | TGI (HS 578T breast) [µM] | TGI (LOX IMVI melanoma) [µM] | TGI (MALME-3M melanoma) [µM] | TGI (SK-MEL-2 melanoma) [µM] | TGI (SR leukemia) [µM] | TGI (SW-620 colon) [µM] | TGI (T-47D breast) [µM] | TGI (U251 CNS) [µM] | TGI (UO-31 renal) [µM] | TGI (HT29 colon) [µM] | TGI (TK-10 renal) [µM]
CCOP(=O)(COCCn1nc(Br)c(=O)[nH]c1=O)OCC | > 100 | > 100 | > 100 | > 100 | > 100 | > 100 | > 100 | > 100 | > 100 | > 100 |  | 
O=C1C=CC(=O)c2c(O)c(N3CCN(c4ncccn4)CC3)c(Cl)c(O)c21 | 22.6 | 7.12 | 3.55 | 3.63 | 3.47 | 37.8 | 2.97 | 5.7 | 12 | 4.03 | 6.73 | 3.47
CN(C)C(=O)/N=C1\SC(=Nc2ccccc2)C(=Nc2ccccc2)N1c1ccc([N+](=O)[O-])cc1 |  | > 100 |  | > 100 | > 100 | > 100 |  | > 100 | > 100 | > 100 | > 100 | 
O=c1[nH]nc(-c2ccc([N+](=O)[O-])cc2)[nH]1 | > 100 | > 100 | > 100 | > 100 | > 100 | > 100 | > 100 | > 100 | > 100 | > 100 | > 100 | > 100
OC(CCN1CCN(CCOC(c2ccc(F)cc2)c2ccc(F)cc2)CC1)c1ccc(Br)cc1 (centres undefined) | 24.1 | 23.4 | 4.07 | 4.39 | 18.8 | 4.13 | 31.2 | 13.7 | 16.4 | 4.67 | 12.7 | 20.9
CCC(C)C(NC(=O)C(CCCC[N+](=N)N)NC(=O)C(CCCC[N+](=N)N)NC(=O)c1ccc(OC)cc1)C(=O)NC(CCCC[N+](=N)N)C(=O)N1CCCC1C(=O)NC(CCCCN)C(=O)NC(CC(C)C)C(N)=O (centres undefined) | > 100 | > 100 | > 100 | > 100 |  | > 100 | > 100 | > 100 | > 100 | > 100 | > 100 | > 100
CCCCCc1cc(CCCC)sc1-c1ccco1 | > 100 | > 100 | > 100 | > 100 | > 100 | > 100 | > 100 | > 100 | > 100 | > 100 | > 100 | > 100
N#Cc1ccnc(C(=O)N2CCCC2C(=O)O)c1 (centres undefined) | > 100 | > 100 | > 100 | > 100 | > 100 | > 100 | > 100 | > 100 | > 100 | > 100 | > 100 | > 100
Cc1nc2ccccc2n1Cc1ccc(NC(=S)Nc2ccccc2)cc1 | > 100 | > 100 | > 100 | > 100 | > 100 | > 100 | > 100 | > 100 | > 100 | > 100 | > 100 | > 100
CC(Br)CN(CC(C)Br)c1ccc2c(c1)Cc1ccccc1-2 (centres undefined) | 24.4 | 41.7 | 23.2 | 24.9 | 29.6 | 14.9 | 40.2 | 29.6 | 22.7 | 24.9 | 25.9 | 26.2
CCOP(=O)(CC1OC(CO)C(O)C1O)OCC (centres undefined) | > 100 | > 100 | > 100 | > 100 | > 100 | > 100 | > 100 | > 100 | > 100 | > 100 | > 61.8 | > 100
O=C1CCCC2=C1CC1=C(CCCC1=O)N2c1ccc(-c2ccccc2)cc1 | > 100 | > 100 | > 100 | > 100 | > 100 | > 100 | > 100 | > 100 | > 100 | > 100 | > 100 | > 100
CC1=NN(c2cccc(Cl)c2)C2(C1=Cc1ccc(N(C)C)cc1)C(Cl)C(=O)N2c1nc2ccccc2s1 (centres undefined) |  | > 100 | > 100 |  | > 100 | > 100 | > 100 | > 100 | > 100 | > 100 | > 100 | > 100
CC12CCC(=O)[C@@]1(C)CCCC2=O (some centres undefined) | > 100 | > 100 | > 100 | > 100 | > 100 | > 100 | > 100 | > 100 | > 100 | > 100 | > 100 | > 100
C[N+]1(CCCCN2c3ccccc3Sc3cc(N=[N+]=[N-])ccc32)CCN(C(=O)CCNC(=O)Cc2ccc(C(=O)c3ccccc3)cc2)CC1 | > 72.6 | > 83.1 | > 78.1 | 70.8 | > 79.4 | 65.5 | > 74.6 | > 76.4 | > 87.3 | 39 | 52.6 | 26.5
Cc1nn(C(=O)c2ccccc2O)c2c1C(c1ccc([N+](=O)[O-])cc1)SC(N)=N2 (centres undefined) | > 10 | > 10 | > 10 | > 10 | > 10 | > 10 | > 10 | > 10 | > 10 | > 10 | > 10 | > 10
Brc1ccc2[nH]cc(-c3csc(-c4c[nH]c5ccc(Br)cc45)n3)c2c1 | 7 | > 20.8 | 3.21 | 3.99 | 3.81 | 2.99 | 4.42 | 12.2 | 3.61 | 7.27 | 3.16 | 8.19
Oc1ccc(C[C@@H]2CN[C@H](Cc3ccc(O)c(Br)c3)CN2)cc1 | > 100 | > 100 |  |  | > 100 | > 100 | > 100 | > 100 | > 100 | > 100 | > 100 | > 100

SMILES | TGI (A549 NSCLC) [µM] | TGI (HS 578T breast) [µM] | TGI (LOX IMVI melanoma) [µM] | TGI (MALME-3M melanoma) [µM] | TGI (SK-MEL-2 melanoma) [µM] | TGI (SR leukemia) [µM] | TGI (SW-620 colon) [µM] | TGI (T-47D breast) [µM] | TGI (U251 CNS) [µM] | TGI (UO-31 renal) [µM] | TGI (HT29 colon) [µM] | TGI (TK-10 renal) [µM]
CC1=CC(O)CC(C)(C)C1/C=C/C(C)=C/C=C/C(C)=C/C=C/C=C(C)/C=C/C=C(C)/C=C/C1=C(C)CC(O)CC1(C)C (centres undefined) | > 100 | > 100 | > 100 | 29 | 68.8 | > 100 | 34.8 | 44.7 |  | > 100 | 30.3 | > 100
COc1ccc(CCn2ccc(=O)c(O)c2C)cc1OC | > 100 | 0.0907 | 78.9 | 91 |  | > 100 | > 100 | 85.7 | > 100 |  | 77.4 | > 100
CC1OC2OC3C(OCC(O)C3O)OC(=O)[C@]34CCC(C)(C)CC3C3=CCC5[C@@]6(C)C[C@H](O)[C@H](OC7OC(CO)C(O)C(O)C7OC7OC(COC(=O)CC(C)(O)CC(=O)OC1C(OC1OC(CO)C(O)C(O)C1O)C2O)C(O)C(O)C7O)[C@@](C)(CO)C6CC[C@@]5(C)[C@]3(C)CC4 (some centres undefined) | 0.293 | 18.6 | 12.1 | 6.96 | 3.37 | 12.4 | 11.2 | 12.6 | 9.26 | 5.31 | 3.35 | 7.92
CO[C@H](C)[C@](O)(C(=O)OCC1=CCN2CC[C@@H](O)[C@H]12)C(C)C | > 100 | > 100 | > 100 |  | > 100 | > 100 | > 100 | > 100 | > 100 | > 100 | > 100 | > 100
CN1C2CCC1C(CO)C(=O)C2 (centres undefined) |  | > 100 | > 100 | 66.5 | > 100 | 75.7 | 43.2 | 48.1 | > 100 |  |  | 59.3
C=C1C[C@@H]2CC[C@@]34CC5O[C@H]6C(O[C@H]7CC[C@H](CC(=O)O[C@@H]8[C@@H](C)[C@@H]9O[C@@H]%10C[C@]%11(C[C@@H]%12O[C@]%13(C[C@H](C)[C@@H]%14O[C@@H]%15CC(C(COC(C)=O)OC(C)=O)O[C@@H]%15C[C@@H]%14O%13)C[C@H](C)[C@@H]%12O%11)O[C@@H]%10C[C@@H]9O[C@H]8CC8O[C@@H](CC[C@@H]1O2)C[C@@H](C)C8(O)CO)O[C@@H]7[C@@H]6O3)[C@H]5O4 (some centres undefined) | > 1 | 0.801 | > 1 |  | > 1 | > 1 | > 1 | > 0.924 | > 1 | > 1 |  | > 1
Fc1cccc(F)c1C1SCc2nc3cc(Cl)ccc3n21 (centres undefined) | > 100 | > 73.4 | 40 | > 31.6 | > 100 | 65.7 | > 100 | > 100 | > 31.6 | > 47.2 | 31.3 | > 100
COC(=O)[C@@H]1[C@H]2CC[C@]3(C)[C@@H](OC(C)=O)CC[C@H]3[C@@H]2CC[C@H]1C1(C)SCCS1 | 74.5 | 74.4 | 34.6 | 38.9 | 40 |  | > 100 | 56.8 | 54.4 | > 100 | 30 | > 100
O=C(O)C12C3C4(C(=O)O)C1C1(C(=O)O)C2C3(C(=O)O)C41 (centres undefined) | > 100 | > 100 | > 100 | > 100 | > 100 | > 100 | > 100 | > 100 | > 100 | > 100 | > 100 | > 100
CCOC(=O)C(NC(=O)CC)(Nc1ccccc1F)C(F)(F)F (centres undefined) | > 100 | > 100 | > 100 |  | > 100 | > 100 | > 100 | > 100 | > 100 | > 100 | > 100 | > 100
O=C1CCC(CCc2nc3ccccc3[nH]2)(c2ccccc2)C(=O)N1 (centres undefined) | > 100 | > 100 | > 100 | > 100 | > 100 | > 100 | > 100 | > 100 | > 100 | 52.1 | > 100 | > 100
CCOC(=O)OC1(c2ccccc2)CCN(C)CC1 | > 100 | > 100 | > 100 | > 100 | > 100 | > 100 | > 100 | > 100 | > 100 | > 100 | > 100 | > 100
C=CCN(c1cc(OC)c2[nH]c(C(=O)O)c(C)c2c1[N+](=O)[O-])S(C)(=O)=O | > 100 | > 100 | > 100 | 52.3 | > 100 | > 100 | > 100 | > 100 | > 100 | > 100 |  | > 100
CC(C)(C)C#CI1OC(=O)c2ccccc21 | 31.9 | > 92.3 | 3.89 | 9.24 | 27 | 3.74 | 10.3 | 14.7 | 11.2 | 14.6 | 22.8 | 15.8
CN(C)CN1C(=O)/C(=N\n2c(-c3ccncc3)n[nH]c2=S)c2ccccc21 | > 100 | > 100 | 62.2 | > 100 | 50.5 |  | > 100 | > 100 | > 100 | 57 | 61.5 | > 100
O=C(O)Cn1c[n+](NC(=O)Cc2ccccc2)cn1 | > 10 | > 10 | > 10 | > 10 |  | > 10 | > 10 | > 10 | > 10 | > 10 | > 10 | > 10
Cc1cccc2c(N)c3cccc(C(=O)NCC[N+](C)(C)[O-])c3nc12 | > 100 | 38.9 | > 100 | 52.5 | > 100 |  | > 100 | > 100 | > 100 | > 100 | 60.3 | > 100
